# Results reported in ChEMBL document CHEMBL1138576, “Virtual screening for Raf-1 kinase inhibitors based on pharmacophore model of substituted ureas” (Eur J Med Chem, 2009).
# Biological target: RAF proto-oncogene serine/threonine-protein kinase (Homo sapiens, UniProt P04049)
# Assay: Inhibition of Raf-1
# RAF proto-oncogene serine/threonine-protein kinase, sequence (P04049 whole entry): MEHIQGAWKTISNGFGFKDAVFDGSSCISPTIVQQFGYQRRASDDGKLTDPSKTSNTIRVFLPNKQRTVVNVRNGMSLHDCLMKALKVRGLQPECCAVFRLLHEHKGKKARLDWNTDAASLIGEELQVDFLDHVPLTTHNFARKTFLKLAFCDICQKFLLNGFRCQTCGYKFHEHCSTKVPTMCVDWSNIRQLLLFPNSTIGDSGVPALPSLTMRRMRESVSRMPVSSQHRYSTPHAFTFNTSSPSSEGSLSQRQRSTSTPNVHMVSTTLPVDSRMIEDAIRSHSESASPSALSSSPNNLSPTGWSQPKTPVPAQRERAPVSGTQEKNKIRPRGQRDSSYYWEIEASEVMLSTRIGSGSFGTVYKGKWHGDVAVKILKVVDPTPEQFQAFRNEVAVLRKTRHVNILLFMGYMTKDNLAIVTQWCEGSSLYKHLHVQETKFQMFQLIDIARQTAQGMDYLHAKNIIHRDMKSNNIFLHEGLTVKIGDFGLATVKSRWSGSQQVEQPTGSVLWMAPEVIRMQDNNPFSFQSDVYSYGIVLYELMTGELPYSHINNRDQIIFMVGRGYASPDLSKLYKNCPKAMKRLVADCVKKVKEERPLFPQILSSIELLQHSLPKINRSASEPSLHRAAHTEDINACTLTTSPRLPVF
row,IC50,SMILES
1,700 nM,COc1cccc(Oc2ccc(NC(=O)Nc3cc(C(C)(C)C)on3)cc2)c1
2,10000 nM,CC(=O)Nc1cccc(Oc2ccc(NC(=O)Nc3cc(C(C)(C)C)on3)cc2C(F)(F)F)c1
3,500 nM,COc1ccc(Oc2ccc(NC(=O)Nc3cc(C(C)(C)C)on3)cc2)cc1
4,44 nM,O=C(Nc1ccc(Oc2ccnc(C(=O)Nc3cccnc3)c2)cc1)Nc1ccc(Cl)c(C(F)(F)F)c1
5,230 nM,CN(C)c1ccc(NC(=O)c2cc(Oc3ccc(NC(=O)Nc4ccc(Cl)c(C(F)(F)F)c4)cc3)ccn2)cc1
6,1500 nM,CC(C)(C)c1cc(NC(=O)Nc2ccc(C(O)c3ccncc3)cc2)no1 (stereo not given)
7,1400 nM,Cc1cc(Oc2ccccc2)ccc1NC(=O)Nc1cc(C(C)(C)C)on1
8,160 nM,O=C(Nc1ccc(Oc2ccnc(C(=O)Nc3ccc(N4CCOCC4)cc3)c2)cc1)Nc1ccc(Cl)c(C(F)(F)F)c1
9,820 nM,CC(=O)c1cccc(Oc2ccc(NC(=O)Nc3cc(C(C)(C)C)on3)cc2)c1
10,590 nM,CC(C)(C)c1cc(NC(=O)Nc2ccc(Cc3ccncc3)cc2)no1
11,7500 nM,CNS(=O)(=O)c1cccc(Oc2ccc(NC(=O)Nc3cc(C(C)(C)C)on3)cc2)c1
12,18000 nM,COC(=O)c1sc(C(C)(C)C)cc1NC(=O)Nc1ccc(O)cc1
13,2700 nM,COc1c(Cl)cccc1NC(=O)Nc1ccc(Oc2ccncc2)cc1
14,800 nM,Cn1nc(C(C)(C)C)cc1NC(=O)Nc1ccc(Oc2ccncc2)cc1
15,1000 nM,Cc1cccc(Oc2ccc(NC(=O)Nc3cc(C(C)(C)C)on3)cc2)c1
16,870 nM,CC(C)(C)c1cccc(NC(=O)Nc2ccc(Oc3ccncc3)cc2)c1
17,4400 nM,CC(C)(C)c1cc(NC(=O)Nc2ccc(Oc3ccc(C(=O)O)cc3)cc2)no1
18,650 nM,Cc1c(NC(=O)Nc2cc(C(C)(C)C)on2)ccc(Oc2ccccc2)c1C
19,120 nM,CC(C)(C)c1cc(NC(=O)Nc2ccc(Oc3ccncc3)cc2)on1
20,4400 nM,COc1cc([N+](=O)[O-])ccc1NC(=O)Nc1ccc(Oc2ccncc2)cc1
21,1100 nM,CNC(=O)c1ccc(Oc2ccc(NC(=O)Nc3cc(C(C)(C)C)on3)cc2)cc1
22,88 nM,CCNC(=O)c1cc(Oc2ccc(NC(=O)Nc3cc(C(F)(F)F)c(Cl)cc3OC)cc2)ccn1
23,9500 nM,CC(C)(C)c1cc(NC(=O)Nc2ccc(Oc3ccccc3)c(C(F)(F)F)c2)no1
24,5000 nM,COC(=O)c1c(NC(=O)Nc2ccc(C)cc2)cc(C(C)(C)C)n1C
25,440 nM,COc1cccc(NC(=O)Nc2ccc(Oc3ccncc3)cc2)c1
